# In patent US12258304B2, “Compounds and methods for treatment of bacterial infections” (Albert Einstein College of Medicine, priority 2019, dated 2025):
# “Also recorded” adds a separate entry of the source.
# B1: PhMqnE (MqnE from Pedobacter heparinus) (Pedobacter heparinus DSM 2366) (protein)
# chain: MDTTSKLALILADADLPAALKAIALKVQNQERITFDEGVYLYENAELGYLGVLANYIREQKHGDNTYFNRNFHIEPTNVCVYDCKFCSYSRLIKQKEEGWEMSVDGMMEVLKKYDHEPVTEVHITGGVVPKQNLEFYSDFFRRAKAHRPELHIKALTPVEYYYIFKKAKLSHYDGMKYMQEAGLDSMPGGGAEIFHPEVREKIAHDKCNAEQWLDIHEQAHKLGMKTNATMLYGHIEQFWHRVDHMERLRRQQDKTGGFQAFIPLKFRNQHNQMDHVPEVSVIEDLRNYAIARIYMDNFDHIKAYWAMISRQTAQLSLNFGVDDIDGTLDDTTKIYSMAGAEEQHPAMSTRDLVDLIKQVKRKPIERDTLYNVVTDYSQVTFEDEVKPQYYKLPVIN
# Experiments:
# [1] = molecular target: T1, PhMqnE (MqnE from Pedobacter heparinus) (Pedobacter heparinus, UniProt C6XW09); test: PhMqnE substrate kinetics / turnover of DHC analogues; type: biochemical
# Experimental: (§1) FIGS. 2(a), 2(b) and 2(c) illustrate inhibition studies of MqnE. […] Assays contained 0.5 μM of PhMqnE, 1 mM SAM, 1 mM DHC, and 2-FDHC varied from 5 μM to 2 mM.
# (§2) The mqnE gene from Pedobacter heparinus (PhMqnE) was coexpressed together with the pPH151 plasmid, which contains the suf operon from E. coli under the control of a T7 promoter, to promote proper FeS cluster assembly in PhMqnE. […] It was surmised that positioning fluorine atoms around the aromatic ring of DHC would stabilize the captodative radical intermediate 1 by preventing it from converting to intermediate 2 in FIG. 1(a), thereby acting as a mechanism-based inhibitor and trapping the enzyme in an intermediate state. DHC analogues were synthesized with fluorine at the 2, 4, 5, and 2,4 positions of DHC (FIG. 1 (b)).
# [2] = molecular target: T1, PhMqnE (MqnE from Pedobacter heparinus); test: PhMqnE competition / inhibition assay (AF formation); type: biochemical
# Experimental: as §1, §2
# HEK293T cells = test: HEK293T cell growth and viability; type: cell-based, human; conditions: 1 mM 2F-DHC, 24 and 48 hr culture
# Experimental: (§3) FIGS. 4(a) and 4(b) illustrate E. coli and HEK293T cell growth in the presence of 2F-DHC.
# (§4) As shown in FIG. 4(a), an overnight culture of E. coli was diluted 1:25 into 100 μL of minimal media with either 1 μL of DMSO (no DHC control) or 1 μL of 100 mM 2F-DHC in DMSO in a 96-well plate. The plate was shaken at 37° C. and monitored for at 2, 3, and 4 hr post inoculation by measuring the OD600. […] Cell growth and viability were measured with an automated cell counter after staining with tryptan blue (Countess, Life Technologies).
# Helicobacter pylori (Hp) = test: Hp growth inhibition in liquid culture (OD600); type: cell-based
# Experimental: Inhibition was determined by measuring the OD600 of liquid cultures incubated at 37° C. for 48 hours.
# (§5) Hp grows under microanaerobic conditions in the human gut, where over population can lead to ulcers and cancer. Based on the K results described above, the effects of 2F-DHC were examined on the growth of Hp in BHI medium supplemented with 10% fetal bovine serum and Hp selective supplement (DENT supplement) in 96-well plate format. Growth of Hp was detected by measuring the optical density of the media at 600 nm after 72 hr of growth at 37° C. […] To determine if 2F-DHC inhibits Hp growth by specifically blocking the action of MqnE in the futalosine pathway, it was tested whether the product of MqnE, AF, could rescue Hp growth in the presence of 2F-DHC.
# Escherichia coli = test: E. coli growth in minimal media (OD600); type: cell-based; conditions: 1 μL of 100 mM 2F-DHC in 100 μL minimal media, OD600 at 2, 3 and 4 hr
# Text: as §3, §5, §4
# [3] = substrate: C=C(Oc1cccc(C(=O)O)c1)C(=O)O; test: PhMqnE substrate kinetics / turnover of DHC analogues; type: biochemical, Pedobacter heparinus; conditions: other: purified PhMqnE, dithionite (DT) as electron source
# [4] = media supplemented with 1 mM AF, 48 hr
molecule,measurement,setting,value
C=C(Oc1cccc(C(=O)O)c1F)C(=O)O [2F-DHC],fold slower product formation than with DHC as substrate,[1]; 2 mM SAM and 2 mM 2F-DHC,~10 fold
same,rate of conversion to fluorinated AF product,[1]; 2 mM SAM and 2 mM analogue as sole substrate,0.41 min⁻¹
same,inhibition of AF production,"[2]; 250 μM inhibitor, 0.5 μM PhMqnE, 1 mM SAM, 1 mM DHC",almost completely inhibited
same,rate of AF formation in the presence of inhibitor,"[2]; competition assay, 2 mM DHC + 2 mM analogue, 3.5 min^−1 without analogues",0.2 min⁻¹
same,Ki,"[2]; fit to non-linear competitive inhibition equation, 0.5 μM PhMqnE, 1 mM SAM, 1 mM DHC",~2000 nM
same,effect on HEK293T cell growth and viability,HEK293T cells,No difference in growth is observed
same,IC90,"Helicobacter pylori (Hp); Helicobacter pylori, 72 hr, read-out: minimal inhibitory concentration that restricts >90% of the growth (IC90)",< 23 µg/mL
same,IC50,"Helicobacter pylori (Hp); Helicobacter pylori, BHI medium, 10% FBS, OD600 after 72 hr at 37° C.",31.8 ± 2.5 µM
same,inhibition at 30 µM,"Helicobacter pylori (Hp); Helicobacter pylori, at ˜30 μM (6 pg/mL), 72 hr",~50%
same,growth of Hp,"Helicobacter pylori (Hp); at 1 mM, 48 hr",completely inhibits growth; also recorded: fully inhibited
same,growth of Hp,"Helicobacter pylori (Hp); at, 72 hr",completely inhibited
same,effect on growth of E. coli,Escherichia coli,no effect; also recorded: No difference in growth is observed
"Nc1ncnc2c1ncn2[C@@H]1O[C@H](CCC(=O)c2cccc(C(=O)O)c2)[C@@H](O)[C@H]1O [AF, aminofutalosine, reference compound]",OD600 of Hp culture in the presence of 1 mM 2F-DHC,Helicobacter pylori (Hp); [4],~0.28
same,rescue of Hp growth in the presence of 1 mM 2F-DHC,Helicobacter pylori (Hp); [4],fully restored; also recorded: can restore growth
"C[S+](CC[C@H](N)C(=O)[O-])C[C@H]1O[C@@H](n2cnc3c(N)ncnc32)[C@H](O)[C@@H]1O (stereo partly drawn) [SAM, S-adenosyl-L-methionine, reference compound]",Km,"[1]; purified PhMqnE, dithionite (DT) as electron source",21 µM
B1,Km,[3],72 µM
